The record followed here is US5652100A, “Stably transfected rodent fibroblast cell lines expressing human GABA-A -receptors” (priority 1992, dated 1997).

The target in the assay is T1, recombinant GABAA receptor (α1 β1 γ2L) expressed by population A cells (Bos taurus, UniProt P08219+P08220+P22300).
T1 construct: expressed in transfected cells; clone 'population A'
T1 sequence (P08219 28-456): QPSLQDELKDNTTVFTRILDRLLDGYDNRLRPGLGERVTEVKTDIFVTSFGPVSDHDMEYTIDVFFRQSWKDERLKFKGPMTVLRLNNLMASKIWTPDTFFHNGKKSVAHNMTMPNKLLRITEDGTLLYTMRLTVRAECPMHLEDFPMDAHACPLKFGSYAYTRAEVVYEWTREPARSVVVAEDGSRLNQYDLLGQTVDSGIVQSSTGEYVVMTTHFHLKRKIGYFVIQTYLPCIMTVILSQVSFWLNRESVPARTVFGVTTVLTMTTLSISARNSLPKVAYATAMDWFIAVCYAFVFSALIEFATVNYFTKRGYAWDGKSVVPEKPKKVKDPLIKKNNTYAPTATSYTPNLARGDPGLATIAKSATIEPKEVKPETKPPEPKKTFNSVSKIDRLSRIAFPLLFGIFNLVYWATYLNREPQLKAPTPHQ
T1 sequence (P08220 26-474): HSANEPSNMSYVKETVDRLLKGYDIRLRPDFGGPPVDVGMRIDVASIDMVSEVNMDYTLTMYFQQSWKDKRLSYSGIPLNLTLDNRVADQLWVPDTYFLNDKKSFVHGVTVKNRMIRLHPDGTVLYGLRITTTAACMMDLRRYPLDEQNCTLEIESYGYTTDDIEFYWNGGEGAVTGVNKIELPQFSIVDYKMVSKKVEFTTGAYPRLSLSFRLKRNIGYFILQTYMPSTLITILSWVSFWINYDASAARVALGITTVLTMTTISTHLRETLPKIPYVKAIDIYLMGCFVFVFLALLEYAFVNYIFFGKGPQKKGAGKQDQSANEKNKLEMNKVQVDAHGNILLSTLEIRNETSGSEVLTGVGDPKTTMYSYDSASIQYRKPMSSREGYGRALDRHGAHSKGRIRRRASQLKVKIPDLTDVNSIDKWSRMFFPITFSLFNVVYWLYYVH
T1 sequence (P22300 40-475): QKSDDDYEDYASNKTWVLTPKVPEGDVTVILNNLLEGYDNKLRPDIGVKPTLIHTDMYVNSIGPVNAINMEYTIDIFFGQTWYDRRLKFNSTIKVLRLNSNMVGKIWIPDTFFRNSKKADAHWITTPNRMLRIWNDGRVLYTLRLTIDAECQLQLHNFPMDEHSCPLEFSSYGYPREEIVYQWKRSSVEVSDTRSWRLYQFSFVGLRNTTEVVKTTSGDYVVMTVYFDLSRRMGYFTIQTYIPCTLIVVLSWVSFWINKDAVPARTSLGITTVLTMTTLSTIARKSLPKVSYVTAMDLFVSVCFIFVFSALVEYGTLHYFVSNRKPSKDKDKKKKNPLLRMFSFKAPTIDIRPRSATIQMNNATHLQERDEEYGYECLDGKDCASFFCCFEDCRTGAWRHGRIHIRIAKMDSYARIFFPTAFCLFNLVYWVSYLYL
The format is cell-based, bovine. An excerpt: The nature of the GABAA receptor expressed by population A cells has been extensively characterised by electrophysiological techniques, using whole cell patch clamp.

[1] abbreviates: whole cell patch clamp, qualitative.

Read-outs that look alike come from different tables or passages of the source.

With `Cc1nnc2ccc(-c3cccc(C(F)(F)F)c3)nn12` [CL218872], the “potentiation of the response to GABA” value is “potentiated”. Consider `NCCCC(=O)O` [GABA, Gamma-amino butyric acid], for which the “Hill coefficient of GABA concentration response curves” value (dexamethasone-induced cells, whole cell patch clamp) stood at 1.9.

`CC(=O)[C@H]1CC[C@H]2[C@@H]3CC[C@H]4C[C@H](O)CC[C@]4(C)[C@H]3C(=O)C[C@]12C` [alphaxalone]: the “potentiation of the response to GABA” value under setting [1] was “potentiated”. For `CN1CCc2cc3c(cc2[C@H]1[C@@H]1OC(=O)c2c1ccc1c2OCO1)OCO3` [bicuculline], the “antagonism of the response to GABA” value under setting [1] is reported as “antagonised”. `CCCC(C)C1(CC)C(=O)NC(=O)NC1=O` (stereo not drawn) [pentobarbitone]: the “potentiation of the response to GABA” value under setting [1] was “potentiated”. As to picrotoxin, the “antagonism of the response to GABA” value under setting [1] is on record as “antagonised”.
